These are literature values, as cited in PubChem BioAssay AID1259410 (Chemical Carcinogenesis Research Information System (CCRIS), 2018).

The test system of this data set is rodent tumor promotion studies, tumor incidence. Put plainly: CCRIS tumor promotion studies.

For the compound `CCC1(CC)C(=O)N=C(O)NC1=O`, the outcome is reported as “kidney: renal cell adenoma” (Carcinogen: CISPLATIN, 15663-27-1, Doses [Carcinogen]: 5 MG/KG BW GIVEN INTRAPERITONEALLY TO FEMALE RATS ON DAY 18 OF GESTATION, Doses [Promoter]: 0, 500 PPM IN DRINKING WATER BEGINNING AT 4 WK OF AGE AND CONTINUING FOR 75 WK (STUDY DURATION: 79 WK), Route [Carcinogen]: TRANSPLACENTAL, Route [Promoter]: ORAL, Species: RAT, Strain/Sex: F344/MALE); “kidney: tumor” (Carcinogen: METHYL(ACETOXYMETHYL)NITROSAMINE, 56856-83-8, Doses [Carcinogen]: 0.05 MMOL/KG IN 5 ML STERILE PHOSPHATE BUFFER ONCE, Doses [Promoter]: 0, 500 PPM IN DRINKING WATER BEGINNING 2 WK POST CARCINOGEN DOSE AND CONTINUING FOR 78 WK (STUDY DURATION: 80 WK), Route [Carcinogen]: INTRAPERITONEAL, Route [Promoter]: ORAL, Species: RAT, Strain/Sex: F344/MALE); “urinary bladder: papilloma or carcinoma” (Carcinogen: N-BUTYL-N-(4-HYDROXYBUTYL)NITROSAMINE, 3817-11-6, Doses [Carcinogen]: 0.5% IN DRINKING WATER FOR 4 WK, Doses [Promoter]: 1000 PPM IN DIET BEGINNING 1 D POST CARCINOGEN DOSE FOR DURATION OF STUDY (STUDY DURATION: 36-52 WK), Route [Carcinogen]: ORAL, Route [Promoter]: ORAL, Species: RAT, Strain/Sex: F344/MALE); “liver: hepatocellular adenoma” (Carcinogen: N-NITROSODIETHYLAMINE, 55-18-5, Doses [Carcinogen]: 75 MG ONCE, Doses [Promoter]: 0, 500 PPM IN DRINKING WATER BEGINNING 2 WK POST CARCINOGEN DOSE AND CONTINUING FOR DURATION OF STUDY (STUDY DURATION: 5, Route [Carcinogen]: INTRAPERITONEAL, Route [Promoter]: ORAL, Species: RAT, Strain/Sex: F344/MALE); “liver: hepatocellular carcinoma; kidney: renal tubular adenoma or adenocarcinoma” (Carcinogen: N-NITROSODIETHYLAMINE, 55-18-5, Doses [Carcinogen]: 75 MG ONCE, Doses [Promoter]: 0, 500 PPM IN DRINKING WATER BEGINNING 2 WK POST CARCINOGEN DOSE AND CONTINUING FOR DURATION OF STUDY (STUDY DURATION: 7, Route [Carcinogen]: INTRAPERITONEAL, Route [Promoter]: ORAL, Species: RAT, Strain/Sex: F344/MALE); “urinary bladder: papilloma or carcinoma” (Carcinogen: N-[4-(5-NITRO-2-FURYL)-2-THIAZOLYL]FORMAMIDE, 24554-26-5, Doses [Carcinogen]: 0.2% IN DIET FOR 6 WK, Doses [Promoter]: 1000 PPM IN DIET BEGINNING 2 WK POST LAST CARCINOGEN DOSE AND CONTINUING FOR DURATION OF STUDY (STUDY DURATION: 52-68 WK, Route [Carcinogen]: ORAL, Route [Promoter]: ORAL, Species: RAT, Strain/Sex: F344/MALE). In addition, the outcome (Carcinogen: NONE (PROMOTION OF SPONTANEOUS TUMORS), Doses [Promoter]: 500 PPM IN DIET FOR 4.5 MONTHS (STUDY DURATION: 4.5 MONTHS), Route [Promoter]: ORAL, Species: RAT, Strain/Sex: EKER (TSC2 MUTANT)/MALE) is “kidney: adenoma or carcinoma”; the outcome (Doses [Carcinogen]: 45 UMOL/KG BW GIVEN INTRAPERITONEALLY TO MOTHERS ON DAYS 16 AND 18 OF GESTATION, Doses [Promoter]: 0, 0.05% IN DRINKING WATER BEGINNING AT 4 WK OF AGE AND CONTINUING FOR 81 WK (STUDY DURATION: 85 WK), Route [Carcinogen]: TRANSPLACENTAL, Route [Promoter]: ORAL, Species: RAT, Strain/Sex: F344/MALE) is on record as “kidney: tumors”; the outcome (Doses [Carcinogen]: 90 UMOL/KG BW GIVEN INTRAPERITONEALLY TO MOTHERS ON DAY 17 OF GESTATION, Doses [Promoter]: 0, 0.05% IN DRINKING WATER BEGINNING AT 4 WK OF AGE AND CONTINUING FOR 81 WK (STUDY DURATION: 85 WK), Route [Carcinogen]: TRANSPLACENTAL, Route [Promoter]: ORAL, Species: RAT, Strain/Sex: F344/MALE) is listed as “kidney: tumors”; the outcome (Doses [Carcinogen]: 90 UMOL/KG ONCE IN DISTILLED WATER, Doses [Promoter]: 0, 500 PPM IN DRINKING WATER BEGINNING 2 WK POST CARCINOGEN DOSE (STUDY DURATION: 96 WK), Route [Carcinogen]: INTRAPERITONEAL, Route [Promoter]: ORAL, Species: RAT, Strain/Sex: F344/MALE) is “kidney: adenoma or carcinoma”.
With `Nc1ncn([C@@H]2O[C@H](CO)[C@@H](O)[C@H]2O)c(=O)n1`, the outcome by setting is: (Carcinogen: DIETHYLNITROSAMINE, 55-18-5, Doses [Carcinogen]: 50 MG/KG IN SALINE ADMINISTERED ONCE 18 HR AFTER PARTIAL HEPATECTOMY, Doses [Promoter]: 0, 2.5, 10 MG/KG 2/WK FOR 9 MO BEGINNING POST CARCINOGEN DOSE (STUDY DURATION: 18 MO), Doses [Promoter]: 0, 2.5, 10 MG/KG 2/WK FOR 9 MO BEGINNING POST CARCINOGEN DOSE (STUDY DURATION: 18 MO), Route [Promoter]: INTRAPERITONEAL, Species: RAT, Strain/Sex: F344/MALE) “liver: hepatocellular carcinoma”; (Carcinogen: DIETHYLNITROSAMINE, 55-18-5, Doses [Carcinogen]: 80 MG/KG 1/WK FOR 5 WK, Doses [Promoter]: 0, 5, 10 MG/KG INJECTED 4, 24, AND 48 HR AFTER EACH CARCINOGEN EXPOSURE (STUDY DURATION: 6 MO), Doses [Promoter]: 0, 5, 10 MG/KG INJECTED 4, 24, AND 48 HR AFTER EACH CARCINOGEN EXPOSURE (STUDY DURATION: 6 MO), Route [Carcinogen]: INTRAPERITONEAL, Route [Promoter]: INTRAPERITONEAL, Species: RAT, Strain/Sex: BD6/MALE) “liver: tumor”.
Take `CC/C(=C(\c1ccccc1)c1ccc(OCCN(C)C)cc1)c1ccccc1`: the outcome (Carcinogen: P-DIMETHYLAMINOAZOBENZENE [60-11-7], Doses [Carcinogen]: 0.5% IN DIET FOR 28 WK (STUDY DURATION: 20 WK), Doses [Promoter]: 0, 0.025% IN DIET FOR 25 WK BEGINNING 3 WK POST FIRST CARCINOGEN DOSE (STUDY DURATION: 28 WK), Route [Carcinogen]: ORAL, Route [Promoter]: ORAL, Species: MOUSE, Strain/Sex: CF-1/MALE) is given as “liver: hepatocellular carcinoma”.
As to `COS(C)(=O)=O`, the outcome (Carcinogen: N-METHYL-N-NITROSOUREA, 684-93-5, Doses [Carcinogen]: 0.3 MG IN CITRIC ACID PHOSPHATE BUFFER ONCE FOR 30 MIN, Doses [Promoter]: 0, 2.5 MG IN BUFFER 1/2 WK FOR 12 WK BEGINNING 14 D POST CARCINOGEN (STUDY DURATION: 2 YR), Route [Carcinogen]: INTRAVESICULAR, Route [Promoter]: INTRAVESICULAR, Species: RAT, Strain/Sex: F344/FEMALE) was “bladder: papillary transitional cell carcinoma”.
With `Cc1c2ccccc2c(C)c2c1ccc1ccccc12`, for the setting “Carcinogen: Diethylstilbestrol, 56-53-1, Doses [Carcinogen]: 0, 0.1, 1, 10, 100 ug in 0.05 ml sesame oil once at birth, Doses [Carcinogen]: 0, 0.1, 1, 10, 100 ug in 0.05 ml sesame oil once at birth, Doses [Promoter]: 10 mg in 1 ml sesame oil once by gastric intubation at 50 days of age, study duration 175 or 300 days of age, Route [Carcinogen]: Subcutaneous, Route [Promoter]: Oral, Species: Rat, Strain/Sex: Sprague-Dawley/Female (22/control group; 15; 21; 13; 16/experimental group)”, the outcome was “mammary carcinomas: 50, 54, 91, 39, 19% at 175 days and 77, 87, 100, 85, 75% at”.
Take `O=NN(CCO)CCO`: where the note is “Carcinogen: NITROSO(2-OXOPROPYL)AMINE, 60599-38-4, Doses [Carcinogen]: 12 MG/ML IN ETHYL ACETATE/CORN OIL (1:1) 2/WK FOR 2 WK, Doses [Promoter]: 0, 100 MG/L IN DRINKING WATER 5 D/WK FOR 40 WK BEGINNING 1/WK POST CARCINOGEN TREATMENT (STUDY DURATION: 43 WK), Route [Carcinogen]: GAVAGE, Route [Promoter]: ORAL, Species: RAT, Strain/Sex: F344/MALE”, the outcome is “kidney: renal cell carcinoma”.
As to `CCC(CC)C(=O)NC(N)=O`, the outcome (Carcinogen: N-NITROSODIETHYLAMINE, 55-18-5, Doses [Carcinogen]: 75 MG IN STERILE SALINE ONCE, Doses [Promoter]: 0, 341 PPM IN DIET BEGINNING 2 WK POST CARCINOGEN DOSE AND CONTINUING FOR DURATION OF STUDY (STUDY DURATION: 78 WK), Route [Carcinogen]: INTRAPERITONEAL, Route [Promoter]: ORAL, Species: RAT, Strain/Sex: F344/MALE) is recorded as “liver: hepatocellular adenoma; kidney: renal tubular cell adenoma or carcinoma”.
Turning to `CCCCCCCC/C=C\CCCCCCCC(=O)OC`, the outcome (Carcinogen: 7,12-DIMETHYLBENZ(A)ANTHRACENE, Doses [Carcinogen]: TOP, Route [Carcinogen]: DERMAL, Route [Promoter]: DERMAL, Species: MOUSE, Strain/Sex: MALE,FEMALE) is “integumentary system (skin)”.
With `CC(C)C[C@H](NC(=O)[C@H](Cc1ccccc1)NC(=O)CNC(=O)CNC(=O)[C@@H](N)Cc1ccc(O)cc1)C(=O)O`, the outcome (Carcinogen: N-METHYL-N'-NITRO-N-NITROSOGUANIDINE, 70-25-7, Doses [Carcinogen]: 25 UG/ML IN DRINKING WATER FOR 25 WK, Doses [Promoter]: 0, 20 UG/KG 1/2 D BEGINNING POST CARCINOGEN TREATMENT AND CONTINUING FOR THE DURATION OF STUDY (STUDY DURATION: 52 WK), Route [Carcinogen]: ORAL, Route [Promoter]: SUBCUTANEOUS, Species: RAT, Strain/Sex: WISTAR/MALE) is reported as “stomach: adenocarcinoma”.
As for `CCCCCCCCCC`, the outcome is, setting by setting: (Carcinogen: 7,12-DIMETHYLBENZ(A)ANTHRACENE, Doses [Carcinogen]: TOP, Route [Carcinogen]: DERMAL, Route [Promoter]: DERMAL, Species: MOUSE, Strain/Sex: FEMALE) “integumentary system (skin)”; (Carcinogen: BENZO(A)PYRENE, Doses [Carcinogen]: TOP, Route [Carcinogen]: DERMAL, Route [Promoter]: DERMAL, Species: MOUSE, Strain/Sex: FEMALE) “integumentary system (skin)”.
